We go through six molecules from US12410124B2 (priority 2019, dated 2025).

Like-named read-outs stand apart in the source and are kept apart here.

The subject of this test is fetal rat midbrain neurons. The test can be described thus: Survival rate of primary midbrain neurons induced by MPP+ (CCK-8). Conditions: for viability at 5 µM / viability at 10 µM / viability at 20 µM: Rattus norvegicus, Neuron, read-out: Survival rate (%). It is filed as cell-based. From the text: The main pathological feature of Parkinson's disease (PD) lies in the degeneration and loss of dopaminergic neuron in the substantia nigra-striatum of the midbrain. 1-Methyl-4-phenylpyridinium (MPP+) has a high affinity to dopamine carriers and a selective toxicity on dopaminergic neurons. Thus, MPP+ is one of the most ideal classic neurotoxins for establishing PD cell models. The primary cell culture of fetal rat midbrain is often used to establish PD cell models in recent years. Although it is more cumbersome and has higher technical requirements than cell line culture, it is closer to the pathological characteristics of PD. Thus, a PD cell model is established using neurons from the primary cell culture of fetal rat midbrain under MPP+ induction, to evaluate the protective effect of target compounds on the model neurons.
The midbrain was separated from a fetal rat of a 15-day-pregnant SD rat and cut into pieces, then subjected to trypsin digestion, pipetting, screen filtration, and resuspension steps, and inoculated in a 24-well cell culture plate pre-coated with poly-D-lysine. 12 hours after culture, cytarabine was added to inhibit the growth of glial cells. On the 5th day of neuron growth, the toxin MPP+ can be added to make a PD cell model. When detecting the activity of a target compound, the target compound was pre-incubated with midbrain neurons for 3 h, then MPP+ was added, and after 48 h co-incubation the neuronal viability was detected by CCK-8 method and the neuronal survival rate was calculated to evaluate the inhibitory activity of the target compound on the midbrain neuronal PD damage. The experiment included blank control group, MPP+ model group, positive control group (caffeic acid phenethyl ester, CAPE), prototype control group (styryl sulfone compounds 3B, 3C, 3D, and 3G), and target compound group (prepared according to Examples 1-22 in the invention).

Setting [1] is: 5 μM, 3 h pre-incubation, 48 h with MPP+.
The mark [2] stands for this setting: 10 μM, 3 h pre-incubation, 48 h with MPP+.
Where [3] appears, read: 20 μM, 3 h pre-incubation, 48 h with MPP+.

For `COc1ccc(CC(=O)Oc2ccc(C(N)CS(=O)(=O)/C=C/c3ccc(OC(C)(C)C)c(OC(=O)N(C)c4ccccc4)c3)cc2)cc1` (stereo not drawn) [Compound P1-3, (E)-4-{1-amino-2-[4-t-butoxy-3-(N-methyl-N-phenylcarbamoyloxy)styrylsulfonyl]ethyl}phenyl-2-(4-methoxyphenyl)acetate], under “48 h”, the viability at 5 µM was 71 ± 3.56%, the viability at 10 µM stood at 85.2 ± 2.94% and the viability at 20 µM was determined as 93.7 ± 3.08%.

On to `COc1ccc(CC(=O)Oc2ccc(/C(C)=C/S(=O)(=O)/C=C/c3ccc(OC(=O)N(C)C)c(O[Si](C)(C)CCl)c3)cc2)cc1` [Compound P1-7, 4-{(E)-1-[(E)-3-(chloromethyldimethylsiloxy)-4-(N,N-dimethylcarbamoyloxy)styrylsulfonyl]prop-1-en-2-yl}phenyl-2-(4-methoxyphenyl) acetate], for which, for the setting “48 h”, the viability at 5 µM was 79.2 ± 3.72%, the viability at 10 µM is 86.6 ± 2.93% and the viability at 20 µM was 91.2 ± 2.08%.

On to `CC[Si](CC)(Oc1ccc(C(Cl)S(=O)(=O)/C=C/c2ccc(OC(=O)N3CC(C)OC(C)C3)c(OC(=O)c3cccc(Cl)c3OC)c2)cc1)c1ccccc1` (stereo not drawn) [Compound R1-5, (E)-4-{2-[4-(diethylphenylsiloxy)phenylchloromesyl]ethenyl}-2-(3-chloro-2-methoxybenzoyloxy)phenyl-2,6-dimethylmorpholine-4-carboxylate], for which the viability at 5 µM under setting [1] was 72.3 ± 2.94%. Further, the viability at 10 µM under setting [2] was 82.5 ± 2.83%. Further, under setting [3], the viability at 20 µM amounted to 90.2 ± 1.76%.

In the case of `Cc1ccc(S(=O)(=O)Oc2ccc(CS(=O)(=O)/C=C/c3ccc(OS(=O)(=O)c4ccc(C)cc4)c(OC(=O)N(C)S(=O)(=O)c4ccc(C)cc4)c3)cc2)cc1` [Compound S6-6, (E)-2-(N-methyl-N-p-tosylcarbamoyloxy)-4-{2-[(4-p-tosyloxyphenyl)mesyl]ethenyl}phenyl p-toluenesulfonate], for the setting “48 h”, the viability at 5 µM was 72 ± 2.47%, the viability at 10 µM was 83.2 ± 4.07% and the viability at 20 µM was 91.7 ± 3.18%.

Take `O=C(/C=C/c1ccc(O)c(O)c1)OCCc1ccccc1` [Positive control group, caffeic acid phenethyl ester, reference compound]: under setting [1], the viability at 5 µM stood at 55 ± 3.78%. Besides, the viability at 10 µM under setting [2] was 67.1 ± 2.98%. The viability at 20 µM under setting [3] stood at 82.6 ± 2.13%.

For “(E)-2-[(methylamino)methoxy]-4-{2-[1-(4′-nitro-[1,1′-biphenyl]-4-yl)ethylsulfonyl]ethenyl}phenylcarbamate [Compound M1-3]”, the “Survival rate (%)” value is, setting by setting: under setting [1], 76.51 ± 4.82%; under setting [2], 85.29 ± 2.97%; under setting [3], 93.26 ± 2.26%.
